Read-outs that look alike come from different tables or passages of the source.
Legend:
cyclin B/CDK1 enzyme = target: T1, cyclin B/CDK1 enzyme (Homo sapiens, UniProt P06493); experiment: CDK1 ELISA kinase assay (phospho-Rb ser 795 detection); type: biochemical; conditions: In Vitro Enzyme Assays, read-out: CDK1 IC50
T1 construct: purchased New England BioLabs; host or cells: Sf9 insect cells, recombinant baculovirus
Summary of the method: (§1)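 GST-Rb C-terminal fragment coated on wells; kinase reaction: 200 μM ATP, 0.5 mg/ml BSA, HEPES pH 7.5, 10 mM MgCl2, baculovirus/Sf9 cyclin-CDK, 30° C, 1 h. Readout anti-phospho-Rb Ser795, HRP, TMB, A450. Test compound 10 ug/ml final.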

cyclin D1/cdk 4 enzyme = target: T2, cyclin D1/cdk 4 enzyme (Homo sapiens, UniProt P11802); experiment: CDK4 ELISA kinase assay (phospho-Rb ser 795 detection); type: biochemical; conditions: In Vitro Enzyme Assays, 200 μM ATP, read-out: CDK4 IC50
T2 construct: made in house; host or cells: Sf9 insect cells, recombinant baculovirus
Summary of the method: as §1

HCT-116 = experiment: Cytotoxicity assay (SRB), HCT-116; type: cell-based; conditions: Homo sapiens, HCT-116, 72 h, HCT116 cells, SRB, read-out: In Vitro Cellular Activity IC50 HCT116
Summary of the method: (§2)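 Seeding: BT474 12000, HCT-116 4000, LoVo 6000, MCF-7 6000 cells/well; overnight attachment, 37 °C, 7% CO2. Drug exposure 3 d (BT474 6 d), RPMI 1640 + 5% FBS. Readout: TCA fix, 0.4% SRB, Tris solubilisation, A540.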

MCF-7 = experiment: Cytotoxicity assay (SRB), MCF-7; type: cell-based; conditions: Homo sapiens, MCF7, 72 h, MCF-7 cells, SRB, read-out: In Vitro Cellular Activity IC50 MCF-7
Summary of the method: as §2

LoVo = experiment: Cytotoxicity assay (SRB), LoVo; type: cell-based; conditions: Homo sapiens, LoVo, 72 h, LoVo cells, SRB, read-out: In Vitro Cellular Activity IC50 LOVO
Summary of the method: as §2

BT474 = experiment: Cytotoxicity assay (SRB), BT474; type: cell-based
Summary of the method: as §2

[1] = Homo sapiens, BT-474, 144 h, BT474 cells, SRB, 6 days; read-out: In Vitro Cellular Activity IC50 BT474
[2] = Homo sapiens, BT-474, 144 h, BT474 cells, 6 days, SRB; read-out: In Vitro Cellular Activity IC50 BT474

T2 sequence (P11802 whole entry, species assumed): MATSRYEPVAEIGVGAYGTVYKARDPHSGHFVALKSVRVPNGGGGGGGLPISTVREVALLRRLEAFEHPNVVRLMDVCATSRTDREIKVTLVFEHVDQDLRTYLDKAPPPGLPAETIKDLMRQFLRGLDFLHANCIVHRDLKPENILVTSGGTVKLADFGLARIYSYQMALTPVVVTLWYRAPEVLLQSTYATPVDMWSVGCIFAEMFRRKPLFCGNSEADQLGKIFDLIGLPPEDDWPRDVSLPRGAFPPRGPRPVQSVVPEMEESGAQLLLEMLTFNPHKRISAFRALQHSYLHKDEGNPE
T2 sequence (P24385 whole entry partner, species assumed): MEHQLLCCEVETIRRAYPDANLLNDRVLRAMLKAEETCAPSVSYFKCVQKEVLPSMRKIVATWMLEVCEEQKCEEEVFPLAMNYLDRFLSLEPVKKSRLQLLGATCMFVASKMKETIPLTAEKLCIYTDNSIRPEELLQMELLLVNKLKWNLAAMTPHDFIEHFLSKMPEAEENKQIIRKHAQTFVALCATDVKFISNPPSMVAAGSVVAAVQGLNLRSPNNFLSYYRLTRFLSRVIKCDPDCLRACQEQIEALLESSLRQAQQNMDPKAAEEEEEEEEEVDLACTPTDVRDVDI
T1 sequence (P06493 whole entry): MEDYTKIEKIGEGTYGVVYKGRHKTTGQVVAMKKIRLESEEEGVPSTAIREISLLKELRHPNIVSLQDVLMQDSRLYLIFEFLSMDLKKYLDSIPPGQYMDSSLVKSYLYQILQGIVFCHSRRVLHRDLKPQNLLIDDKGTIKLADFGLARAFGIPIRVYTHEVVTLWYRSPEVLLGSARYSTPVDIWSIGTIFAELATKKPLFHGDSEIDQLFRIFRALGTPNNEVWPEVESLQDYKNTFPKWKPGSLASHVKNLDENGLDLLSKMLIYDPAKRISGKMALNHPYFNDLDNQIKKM
T1 sequence (P14635 whole entry partner): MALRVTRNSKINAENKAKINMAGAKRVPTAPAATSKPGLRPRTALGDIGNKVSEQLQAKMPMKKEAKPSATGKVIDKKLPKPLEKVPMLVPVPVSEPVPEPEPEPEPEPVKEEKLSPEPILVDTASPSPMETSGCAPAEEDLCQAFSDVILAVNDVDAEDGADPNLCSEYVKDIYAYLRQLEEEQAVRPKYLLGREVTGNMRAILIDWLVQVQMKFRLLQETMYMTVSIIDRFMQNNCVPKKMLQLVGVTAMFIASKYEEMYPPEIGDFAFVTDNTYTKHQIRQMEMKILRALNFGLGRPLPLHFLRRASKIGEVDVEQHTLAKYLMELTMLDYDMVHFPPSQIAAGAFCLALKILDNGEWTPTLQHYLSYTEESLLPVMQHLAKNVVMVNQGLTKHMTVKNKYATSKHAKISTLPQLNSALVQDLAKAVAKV

Compound | IC50 (cyclin B/CDK1 enzyme) | IC50 (cyclin D1/cdk 4 enzyme) | melting point | IC50 (HCT-116; three days) | IC50 (MCF-7; three days) | IC50 (LoVo; three days) | IC50 (BT474; [1]) | IC50 (HCT-116; 3 days) | IC50 (MCF-7; 3 days) | IC50 (LoVo; 3 days) | IC50 (BT474; [2])
COc1ccc2c(c1)C(=CNc1ccc(CN3CCCCC3)cc1)C(=O)NC2=O [Example 91, 6-Methoxy-4-[(4-piperidin-1-ylmethyl-phenylamino)-methylene]-4H-isoquinoline-1,3-dione] | > 50 µM | 2 µM | 272 to 275 °C (dec.) | 27 µM | 16 µM | 37 µM | 40 µM |  |  |  | 
O=C1NC(=O)c2ccccc2/C1=C/NCc1ccc(O)cc1 [Example 61] | 37.2 µM | > 50 µM | 272 to 273 °C | 27.6 µM | > 50 µM | > 50 µM | > 50 µM |  |  |  | 
COc1ccc(CN/C=C2\C(=O)NC(=O)c3ccc(-c4ccoc4)cc32)cc1O [Example 92] | 2.5 µM | < 0.005 µM | 254 to 255 °C | 2.5 µM | 3.8 µM | 3.2 µM | 2 µM |  |  |  | 
O=C1NC(=O)c2ccc(-c3ccc(O)cc3)cc2/C1=C/Nc1ccc(CN2CCCCC2)cc1 [Example 103] | > 50 µM | 0.041 µM | 244 to 245 °C |  |  | 2.3 µM | 3.7 µM |  |  |  | 
O=C1NC(=O)c2ccc(-c3ccoc3)cc2/C1=C/Nc1ccc(CN2CCCCC2)cc1 [Example 93] | > 50 µM | 0.037 µM | 204 to 205 °C |  |  | 1.8 µM | 1 µM |  |  |  | 
CN1CCN(c2ccc(NC=C3C(=O)NC(=O)c4ccc(OCCN5CCOCC5)cc43)cc2)CC1 [Example 155, 4-{[4-(4-Methyl-piperazin-1-yl)-phenylamino]-methylene}-6-(2-morpholin-4-yl-ethoxy)-4H-isoquinoline-1,3-dione] |  |  | 142 to 143 °C | 17 µM | 26 µM | 19 µM | 22 µM |  |  |  | 
O=C1NC(=O)c2ccc(-n3cccc3)cc2/C1=C/Nc1ccc(Br)cn1 [Example 444, (Z)-4-((5-Bromopyridin-2-ylamino)methylene)-6-(1H-pyrrol-1-yl)isoquinoline-1,3(2H,4H)-dione] |  |  | 317 to 318 °C (dec.) |  |  |  |  | 3.2 µM | 8.9 µM | 5 µM | 5.2 µM
CCCOc1ccc(CN/C=C2\C(=O)NC(=O)c3ccc(I)cc32)nc1Br [Example 493, (Z)-4-(((6-Bromo-5-propoxypyridin-2-yl)methylamino)methylene)-6-iodoisoquinoline-1,3(2H,4H)-dione] |  |  | 251 to 253 °C (dec.) |  |  |  |  | 4.7 µM | 10.2 µM | 9.4 µM | 10.9 µM
O=C1NC(=O)c2ccc(Br)cc2/C1=C/NCCc1c[nH]c2ccccc12 [Example 43, (4Z)-6-Bromo-4-({[2-(1H-indol-3-yl)ethyl]amino}methylene)isoquinoline-1,3(2H,4H)-dione] |  |  | 278 to 280 °C | 26 µM | > 50 µM | > 50 µM | 41 µM |  |  |  | 
O=C1NC(=O)c2ccc(Br)cc2/C1=C/NCc1ccc2c(c1)OCO2 [Example 109, (4Z)-4-{[(1,3-Benzodioxol-5-ylmethyl)amino]methylene}-6-bromoisoquinoline-1,3(2H,4H)-dione] |  |  | 227 to 228 °C | 16.8 µM | > 50 µM | > 50 µM | 34.8 µM |  |  |  | 
N#Cc1ccc2c(c1)/C(=C/Nc1ccc(CN3CCCCC3)cc1)C(=O)NC2=O [Example 110, (4Z)-1,3-Dioxo-4-({[4-(piperidin-1-ylmethyl)phenyl]amino}methylene)1,2,3,4-tetrahydroisoquinoline-6-carbonitrile] |  |  | 254 to 256 °C (dec.) | 1.6 µM | 5.8 µM | 2.5 µM | 3.5 µM |  |  |  | 
COc1cc2c(cc1Br)/C(=C/Nc1ccc(CN3CCCCC3)cc1)C(=O)NC2=O [Example 252, 6-Bromo-7-methoxy-4-[(4-piperidin-1-ylmethyl-phenylamino)-methylene]-4H-isoquinoline-1,3-dione] |  |  | 264 to 267 °C | 14 µM | 33 µM | 21 µM | 15 µM |  |  |  | 
COc1cc2c(cc1Br)/C(=C/Nc1ccc(N3CCN(C)CC3)cc1)C(=O)NC2=O [Example 242, 6-Bromo-7-methoxy-4-{[4-(4-methyl-piperazin-1-yl)-phenylamino]-methylene}-4H-isoquinoline-1,3-dione] |  |  | 274 to 276 °C | 2.1 µM | 5.2 µM | 4.5 µM | 3.2 µM |  |  |  | 
C[C@@H]1CN(c2ccc(N/C=C3\C(=O)NC(=O)c4ccc(Br)cc43)cc2F)C[C@H](C)N1 [Example 318, (4Z)-6-Bromo-4-[({4-[(3R,5S)-3,5-dimethylpiperazin-1-yl]-3-fluorophenyl}amino)methylene]isoquinoline-1,3(2H,4H)-dione] |  |  | 168 to 169 °C | 1.3 µM | 2.5 µM | 1.5 µM | 1.9 µM |  |  |  | 
CN1CCN(c2ccc(N/C=C3\C(=O)NC(=O)c4ccc(-c5ccoc5)cc43)cn2)CC1 [Example 249, (4Z)-6-(3-Furyl)-4-({[6-(4-methylpiperazin-1-yl)pyridin-3-′yl]amino}methylene)isoquinoline-1,3(2H,4H)-dione] | > 50 µM |  | 200 to 201 °C |  |  | 2.4 µM | 2 µM |  |  |  | 
CCCOc1ccc(CN/C=C2\C(=O)NC(=O)c3ccc(I)cc32)nc1O [Example 510, 4-{[(6-Hydroxy-5-propoxy-pyridin-2-ylmethyl)-amino]-methylene}-6-iodo-4H-isoquinoline-1,3-dione] |  |  | 275 to 281 °C (dec.) |  |  |  |  | 0.67 µM | 1.4 µM | 0.42 µM | 0.16 µM
CC(C)N1CCN(c2ccc(N/C=C3\C(=O)NC(=O)c4ccc(Br)cc43)nc2)CC1 [Example 486, (4Z)-6-Bromo-4-({[5-(4-isopropylpiperazin-1-yl)pyridin-2-yl]amino}methylene)isoquinoline-1,3(2H,4H)-dione] |  |  | 223 to 224 °C |  |  |  |  | 7.49 µM | 10 µM | 7.56 µM | 3.61 µM
O=C1NC(=O)c2ccc(-c3ccccc3)cc2/C1=C/Nc1ccc(CN2CCCCC2)cc1 [Example 95] | > 50 µM |  | 214 to 215 °C |  |  | 3.7 µM | 3 µM |  |  |  | 
O=C1NC(=O)c2ccc(I)cc2/C1=C/Nc1ccc(OCc2ccccn2)cc1 [Example 247] |  |  | 265 to 266 °C | 18 µM | > 50 µM | > 50 µM | 35 µM |  |  |  | 
CC(=O)Oc1ccc(CN/C=C2\C(=O)NC(=O)c3ccccc32)cc1OC(C)=O [Example 47, 2-(Acetyloxy)-4-({[(Z)-(1,3-dioxo-2,3-dihydroisoquinolin-4(1H)-ylidene)methyl]amino}-methyl)phenyl acetate] | > 50 µM | 1.1 µM | 184 to 186 °C | 21 µM | 20 µM | 22 µM |  |  |  |  | 
CCCOc1ccc(CN/C=C2\C(=O)NC(=O)c3ccc(Br)cc32)cc1OC(=O)CC [Example 190, 5-({[(Z)-(6-Bromo-1,3-dioxo-2,3-dihydroisoquinolin-4(1H)-ylidene)methyl]amino}-methyl)-2-propoxyphenyl propionate] |  |  | 206 to 207 °C | 9.4 µM | > 50 µM | 13 µM | 1.4 µM |  |  |  | 
CN1CCN(c2ccc(N/C=C3\C(=O)NC(=O)c4ccc(C#CCOC5CCCCO5)cc43)cc2)CC1 (stereo not drawn) [Example 161, (4Z)-4-({[4-(4-Methylpiperazin-1-yl)phenyl]amino}methylene)-6-[3-(tetrahydro-2H-pyran-2-yloxy)prop-1-ynyl]isoquinoline-1,3(2H,4H)-dione] |  |  | 175 to 176 °C | 2.2 µM | 4 µM | 6.4 µM | 3.4 µM |  |  |  | 
O=C1NC(=O)c2ccc(Br)cc2C1=CNCc1cc(=O)c(O)co1 [Example 313, 6-Bromo-4-{[(5-hydroxy-4-oxo-4H-pyran-2-ylmethyl)-amino]-methylene}-4H-isoquinoline-1,3-dione] |  |  | 293 to 297 °C (dec.) | 27 µM | 22 µM | 41 µM | 43 µM |  |  |  | 
